The values below come from ChEMBL document CHEMBL4339238, “Potent Anti-HIV Ingenane Diterpenoids from Euphorbia ebracteolata” (J Nat Prod, 2019).

Series [1] has as its system Human immunodeficiency virus 1. The series is described as follows: Antiviral activity against HIV NL4-3 infected in human MT4 cells measured on day 3 post-infection by Nano-Glo luciferase assay. Format: functional, organism-based. The settings on record: Human immunodeficiency virus 1, NL4-3, MT4, 72 h.
A short description of series [2]: Cytotoxicity against human MT4 cells measured after 3 days by CytoTox-Glo assay. Format: cell-based.
Series [3] in a line: Selectivity index, ratio of CC50 for human MT4 cells to IC50 for HIV NL4-3 infected in human MT4 cells. The format is toxicity, cell-based. The settings on record: read-out: Ratio CC50/IC50.

A word on the IC50: it is the concentration that inhibits the measured activity by half. In general, CC50 refers to the concentration giving 50% cytotoxicity. Low values mean greater toxicity to the cells, high ones lower toxicity to the cells.

In turn, `CCCCCCCCCCCCCCCC(=O)O[C@H]1C(C)=C[C@]23C(=O)[C@@H](C=C(CO)[C@@H](O)[C@]12O)[C@H]1[C@@H](C[C@H]3C)C1(C)C` showed an IC50 in series [1] of 4.1 nM. Further, the cytotoxic concentration (CC50) at 72 h in series [2] stood at 26.3 µM. Further, in series [3], the selectivity ratio was determined as 6420.
On the same counts, the results for `CCCCC/C=C/C=C/C(=O)O[C@@H]1C(COC(C)=O)=C[C@@H]2C(=O)[C@]3(C=C(C)[C@H](O)[C@@]13O)[C@H](C)C[C@@H]1[C@H]2C1(C)C` are 1.2 nM, 15.2 µM and 13000.
On to `CCCCC/C=C\C=C\C(=O)O[C@@H]1C(COC(C)=O)=C[C@@H]2C(=O)[C@]3(C=C(C)[C@H](O)[C@@]13O)[C@H](C)C[C@@H]1[C@H]2C1(C)C`, for which, in series [1], the half-maximal inhibitory concentration (IC50) was 0.7 nM. Also, half-maximal cytotoxicity in series [2] (CC50 at 72 h) was put at 14.3 µM. Moreover, the selectivity ratio in series [3] is 20300.
Consider `CCCCC/C=C\C=C\C(=O)O[C@H]1C(C)=C[C@]23C(=O)[C@@H](C=C(COC(C)=O)[C@@H](O)[C@]12O)[C@H]1[C@@H](C[C@H]3C)C1(C)C`, for which, in series [1], it took 1.8 nM to reach half-maximal inhibition (IC50). This compound registered a half-maximal cytotoxic concentration (CC50) at 72 h in series [2] above 0.9 µM. Further, the selectivity ratio in series [3] is above 526.
For `CCCCCCCCCCCCCC(=O)O[C@H]1C(C)=C[C@]23C(=O)[C@@H](C=C(CO)[C@@H](O)[C@]12O)[C@H]1[C@@H](C[C@H]3C)C1(C)C` the same measures were 2.3 nM, 26.3 µM and 11300.
For `CCCC\C=C/C=C/C=C/C(=O)O[C@H]1C(C)=C[C@]23C(=O)[C@@H](C=C(COC(C)=O)[C@@H](O)[C@]12O)[C@H]1[C@@H](C[C@H]3C)C1(C)C` the same measures were 8.4 nM, above 0.9 µM and above 111.
Regarding `CCCCCCCCCCCCCCCC(=O)O[C@@H]1C(CO)=C[C@@H]2C(=O)[C@]3(C=C(C)[C@H](O)[C@@]13O)[C@H](C)C[C@@H]1[C@H]2C1(C)C`, in series [1], half-maximal inhibition (IC50) was put at 4.4 nM. This compound came in with a CC50 at 72 h in series [2] above 1.7 µM. Besides, in series [3], the selectivity ratio is above 385.
In series [1], `CCCCC/C=C/C=C/C(=O)O[C@H]1C(C)=C[C@]23C(=O)[C@@H](C=C(COC(C)=O)[C@@H](O)[C@]12O)[C@H]1[C@@H](C[C@H]3C)C1(C)C` gave an IC50 of 5 nM. The same compound gave a half-maximal cytotoxic concentration (CC50) at 72 h in series [2] above 0.9 µM. The selectivity ratio in series [3] was above 185.
`CCCCCCCCCCCCCC(=O)OCC1=C[C@@H]2C(=O)[C@]3(C=C(C)[C@H](O)[C@@]3(O)[C@@H]1O)[C@H](C)C[C@@H]1[C@H]2C1(C)C` gave a half-inhibitory concentration (IC50) in series [1] of 8.6 nM. This compound displayed a CC50 at 72 h in series [2] of 32.4 µM. In addition, the selectivity ratio in series [3] is 3770.
The compound `CCCCCCCCCCCCCCCC(=O)OCC1=C[C@@H]2C(=O)[C@]3(C=C(C)[C@H](O)[C@@]3(O)[C@@H]1O)[C@H](C)C[C@@H]1[C@H]2C1(C)C` yielded a half-maximal inhibitory concentration (IC50) in series [1] of 1.1 nM. The compound further yielded a cytotoxic concentration (CC50) at 72 h in series [2] above 1.7 µM. In series [3], the selectivity ratio is above 1540.
For `CCCCCC/C=C/CCCCCCCC(=O)O[C@H]1C(C)=C[C@]23C(=O)[C@@H](C=C(CO)[C@@H](O)[C@@]12O)[C@H]1[C@@H](C[C@H]3C)C1(C)C` the same measures were 1.1 nM, 13.9 µM and 13100.
On to `CCCC\C=C/C=C\C=C\C(=O)O[C@H]1C(C)=C[C@]23C(=O)[C@@H](C=C(COC(C)=O)[C@@H](O)[C@]12O)[C@H]1[C@@H](C[C@H]3C)C1(C)C`, for which 9.7 nM corresponded to half-maximal inhibition in series [1] (IC50). Further, in series [2], the CC50 at 72 h is above 0.9 µM. Besides, the selectivity ratio in series [3] is above 96.2.
As for `CCCCCC/C=C\CCCCCCCC(=O)O[C@H]1C(C)=C[C@]23C(=O)[C@@H](C=C(CO)[C@@H](O)[C@@]12O)[C@H]1[C@@H](C[C@H]3C)C1(C)C`, the half-inhibitory concentration (IC50) in series [1] is 2.7 nM. In series [2], this compound displayed a CC50 at 72 h above 1.7 µM. The selectivity ratio in series [3] is above 625.
`CCCCCCCCCCCCCC(=O)O[C@@H]1C(CO)=C[C@@H]2C(=O)[C@]3(C=C(C)[C@H](O)[C@@]13O)[C@H](C)C[C@@H]1[C@H]2C1(C)C` gave a half-maximal inhibitory concentration (IC50) in series [1] of 3.9 nM. For the same compound, the half-maximal cytotoxic concentration (CC50) at 72 h in series [2] is above 1.8 µM. Further, the selectivity ratio in series [3] is above 454.
Take `CCCCCCCCCC(=O)OCC1=C[C@@H]2C(=O)[C@]3(C=C(C)[C@H](O)[C@@]3(O)[C@@H]1O)[C@H](C)C[C@@H]1[C@H]2C1(C)C`: in series [1], it took 8.2 nM to reach half-maximal inhibition (IC50). This compound also displayed a CC50 at 72 h in series [2] of 48.8 µM. Moreover, the selectivity ratio in series [3] was 5980.
In the case of `CC1=C[C@]23C(=O)[C@@H](C=C(CO)[C@@H](O)[C@]2(O)[C@H]1O)[C@H]1[C@@H](C[C@H]3C)C1(C)C` [INGENOL], in series [1], the IC50 was above 10 nM. Besides, the CC50 at 72 h in series [2] is above 10 µM.
Compound `Cc1cn([C@H]2C[C@H](N=[N+]=[N-])[C@@H](CO)O2)c(=O)[nH]c1=O` [ZIDOVUDINE] displayed an IC50 in series [1] of 18.7 nM. The compound further yielded a cytotoxic concentration (CC50) at 72 h in series [2] above 0.37 µM. The selectivity ratio in series [3] was above 20.
